Assay results: patent US5919788A, “4-(1H-indol-1-yl)-1-piperidinyl derivatives” (Janssen Pharmaceutica, N.V., priority 1995, dated 1999)
Read-outs that look alike come from different tables or passages of the source.

Columns and labels:
Assay type in all cases: in vivo
norepinephrine = assay: combined apomorphine, tryptamine, norepinephrine (ATN) test in rats: norepinephrine (NOR), peripheral α-adrenergic antagonism; details: Rattus norvegicus, read-out: NOR, ED50
dopamine = assay: combined apomorphine, tryptamine, norepinephrine (ATN) test in rats: apomorphine (APO), central dopamine antagonism; details: Rattus norvegicus, preventing the symptoms elicited with apomorphine
serotonin = assay: combined apomorphine, tryptamine, norepinephrine (ATN) test in rats: tryptamine (TRY), central (convulsions) and peripheral (hyperaemia) serotonin antagonism; details: Rattus norvegicus
[1] = preventing central symptoms (convulsions), central serotonin antagonism, read-out: TRY convulsions, ED50
[2] = preventing peripheral symptoms (hyperaemia), peripheral serotonin antagonism, read-out: TRY hyperaemia, ED50
[3] = preventing or delaying death upon administration of norepinephrine, rats, peripheral α-adrenergic antagonism

SMILES | ED50 (norepinephrine) [mg/kg] | ED50 (dopamine) [mg/kg] | ED50 (serotonin; [1]) [mg/kg] | ED50 (serotonin; [2]) [mg/kg] | ED50 (norepinephrine; [3]) [mg/kg]
Cc1nn2c(=O)c(CCN3CCC(n4ccc5cc(F)ccc54)CC3)c(C)nc2s1 [Compound 8, 6-[2-[4-(5-fluoro-1H-indol-1-yl)-1-piperidinyl]-ethyl]-2,7-dimethyl-5H-1,3,4-thiadiazolo[3,2-a]pyrimidin-5-one] | 10 | 0.63 | 0.63 | 0.04 | 
Cc1nc2n(c(=O)c1CCN1CCC(N3c4ccccc4CC3C)CC1)CCCC2 (centres unmarked) [Compound 34] |  | 5 | > 10 | ≤ 0.63 | 
Cc1nc2sccn2c(=O)c1CCN1CCC(n2ccc3cc(F)ccc32)CC1 [Compound 4, 6-[2-[4-(5-fluoro-1H-indol-1-yl)-1-piperidinyl]ethyl]-7-methyl-5H-thiazolo[3,2-a]-pyrimidin-5-one] | 2.5 | 0.04 | 0.04 | 0.01 | 
Cc1nc2ccccn2c(=O)c1CCN1CCC(n2ccc3cc(F)ccc32)CC1 [Compound 18] |  | 0.08 | 0.08 | 0.01 | 5
CCSc1nc(C)c(CCN2CCC(n3ccc4ccccc43)CC2)c(=O)n1C [Compound 25] | > 10 | 0.63 | 2.5 | 0.16 | 
Cc1nc2sccn2c(=O)c1CCN1CCC(N2CCc3ccccc32)CC1 [Compound 5] |  | 0.08 | 0.31 | 0.02 | 
Cc1nc2n(c(=O)c1CCN1CCC(n3ccc4cc(F)ccc43)CC1)CCCS2 [Compound 17] |  | 0.08 | 0.16 | 0.02 | 5
Cc1nc2n(c(=O)c1CCN1CCC(n3ccc4cc(F)ccc43)CC1)CCS2 [Compound 2] | 10 | 0.16 | 0.63 | 0.01 | 
Cc1nc2scc(C)n2c(=O)c1CCN1CCC(n2ccc3ccccc32)CC1 [Compound 6, 6-[2-[4-(1H-indol-1-yl)-1-piperidinyl]ethyl]-3,7-dimethyl-5H-thiazolo[3,2-a]pyrimidin-5-one] | 10 | 0.16 | 0.16 | 0.01 | 
Cc1nc2n(c(=O)c1CCN1CCC(n3ccc4ccccc43)CC1)CCS2 [Compound 1, 2,3-dihydro-6[2-[4-(1H-indol-1-yl)-1-piperidinyl]ethyl]-7-methyl-5H-thiazolo[3,2-a]-pyrimidin-5-one] | > 10 | 0.63 | 0.63 | 0.04 | 
COC1CCCn2c1nc(C)c(CCN1CCC(n3ccc4cc(F)ccc43)CC1)c2=O (centres unmarked) [Compound 15] | 10 | 0.16 | 0.63 | 0.01 | 
Cc1nc2n(c(=O)c1CCN1CCC(N3CCc4ccccc43)CC1)CCCC2 [Compound 31] |  | 1.25 | 1.25 | 0.31 | 
Cc1nc2n(c(=O)c1CCN1CCC(n3ccc4cc(F)ccc43)CC1)CCCC2 [Compound 12, 3-[2-[4-(5-fluoro-1H-indol-1-yl)-1-piperidinyl]ethyl]-6,7,8,9-tetrahydro-2-methyl-4H-pyrido[1,2-a]pyrimidin-4-one] | > 10 | 0.31 | 0.31 | 0.02 | 
Cc1nc2c(C)cccn2c(=O)c1CCN1CCC(n2ccc3cc(F)ccc32)CC1 [Compound 20] | > 10 | 0.63 | 0.63 | 0.16 | 
CNc1nc(C)c(CCN2CCC(n3ccc4cc(F)ccc43)CC2)c(=O)n1C [Compound 24, 5-[2-[4-(5-fluoro-1H-indol-1-yl)-1-piperidinyl]ethyl]-3,6-dimethyl-2-(methylamino)-4(3H)-pyrimidinone] | 10 | 0.63 | 0.16 | 0.01 | 
Cc1nc2sccn2c(=O)c1CCN1CCC(n2ccc3ccccc32)CC1 [Compound 3, 6-[2-[4-(1H-indol-1-yl)-1-piperidinyl]ethyl]-7-methyl-5H-thiazolo[3,2-a]pyrimidin-5-one] | > 10 | 0.16 | 0.16 | 0.01 | 
Cc1nc2n(c(=O)c1CCN1CCC(n3ccc4ccccc43)CC1)CCCS2 [Compound 16] | 10 | 0.16 | 0.63 | 0.02 | 
Cc1nc2c(C)cccn2c(=O)c1CCN1CCC(n2ccc3ccccc32)CC1 [Compound 19] | > 10 | 0.63 | 2.5 | 0.63 | 
Cc1cc2nc(C)c(CCN3CCC(n4ccc5cc(F)ccc54)CC3)c(=O)n2o1 [Compound 10] | 10 | 0.63 | 0.16 | 0.0025 | 
Cc1nc2n(c(=O)c1CCN1CCC(n3ccc4cc(F)ccc43)CC1)C(C)CCC2 (centres unmarked) [Compound 29] |  | 0.08 | 0.31 | 0.005 | 5
O=C(O)/C=C/C(=O)O.O=c1[nH]c2ccccc2n1CCCN1CCC(n2ccc3cc(F)ccc32)CC1 [Compound 28, 1-[3-[4-(5-fluoro-1H-indol-1-yl)-1-piperidinyl]propyl]-1,3-dihydro-2H-benzimidazol-2-one (E)-2-butenedioate (1:1)] | > 10 |  | 0.16 | 0.01 | 
